Results: patent publication US10189795B2, “Aryl amine substituted quinoxaline used as anticancer drugs” (priority 2014, dated 2019)

Tests used:
A549 = experiment: cell viability of A549 cells, 1 and 10 uM; type: cell-based; conditions: Homo sapiens
NCI-H226 = experiment: cell viability of NCI-H226 cells, 1 and 10 uM; type: cell-based; conditions: Homo sapiens
PLC5 xenograft tumor = PLC5 xenograft tumor growth in nude mice; type: in vivo
Description: Male NCr athymic nude mice (5-7 weeks of age) were obtained from the National Laboratory Animal Center (Taipei, Taiwan). All experimental procedures using these mice were performed in accordance with protocols approved by the Institutional Laboratory Animal Care and Use Committee of National Taiwan University. Each mouse was inoculated subcutaneously in the dorsal flank with 1×10^6 PLC5 or A549 cells suspended in serum-free medium containing 50% Matrigel (BD Biosciences, Bedford, Mass., USA). When tumors reached 100-150 mm^3, mice were treated with sorafenib, the erlotinib derivatives of the present invention, or vehicle (control) at 10 mg/kg/day daily by oral gavage for 4 weeks.
The present invention used a PLC5 xenograft mouse model to assess the effects of TD-52 in vivo. The present choose sorafenib as one of the comparative treatment arms. Tumor-bearing mice were administered sorafenib (10 mg/kg), TD-52 (10 mg/kg) or DMSO (vehicle, as control). […] The present invention further examined the xenografted tumors taken from mice receiving TD-52 and vehicle to confirm the molecular events in the tumor tissue. […] When PP2A activity was enhanced by TD-52, Akt was dephosphorylated, promoting HCC cell apoptosis.

NCI-1703 = experiment: cell viability of NCI-1703 cells, 1 and 10 uM of each erlotinib derivative, and IC50; type: cell-based; conditions: Homo sapiens
BA (%), Table 5 = conditions: in vivo
H520 = experiment: cell viability of H520 cells, 1 and 10 uM; type: cell-based; conditions: Homo sapiens, NCI-H520
HA22T = experiment: MTT cell viability, HA22T; type: cell-based; conditions: Homo sapiens, 48 h
Description: (§1) The present invention compared the antitumor activities of an erlotinib derivative of the present invention, TD-52, and erlotinib on HCC cells. The present invention used MTT assay to evaluate cell viability after exposure to TD-52 or erlotinib for 48 h. […] To further evaluate the cell apoptosis induced by the treatments, all four cell lines were treated with TD-52 and erlotinib at the indicated concentration for 24 h and the percentages of sub-G1 cells were determined by flow cytometry (FIG. 1B).

CIP2A, p-Akt = experiment: western blot of CIP2A and p-Akt in HCC cells; type: cell-based; conditions: dose- and time-dependent
Description: Bar, mean; error bars, S.D. (n=3). […] Bar, mean; error bars, S.D. (n=3). […] Bar, mean; error bars, S.D. (n=3). […] Bar, mean; error bars, S.D. (n=3). […] Bar, mean; error bars, S.D. (n=3)
Cells were treated with […] for a time period. Cell lysates were analyzed by western blot analysis.
The present invention next investigated the molecular mechanism associated with TD-52, with particular focus on the cancerous inhibitor of protein phosphatase 2A (CIP2A)-protein phosphatase 2A (PP2A)-p-Akt signaling pathway. […] Furthermore, PP2A activity was enhanced after HCC cells treated with […]-52 for 24 hr (FIG. 2C), while the expression level of PP2A-related subunits, PP2A-A, PP2A-B5 and PP2A-C subunits, were not affected.

Sk-Hep1 = experiment: MTT cell viability, Sk-Hep1; type: cell-based; conditions: Homo sapiens, 48 h
Description: The Sk-Hep1, PLC/PRF/5 (PLC) and Hep3B cell lines were obtained from American Type Culture Collection (ATCC; Manassas, Va., USA). The Huh-7 HCC cell line was obtained from the Health Science Research Resources Bank (HSRRB; Osaka, Japan; JCRB0403). Cells were maintained in DMEM supplemented with 10% FBS in a 37° C. humidified incubator in an atmosphere of 5% CO^2 in air. Other cell lines, including non-small cell lung cancer cells e.g. H358, H460 and A549 and human squamous cell carcinoma cells e.g. NCI-1703, H2170, H520, SW900 and NCI—H226 all obtained from American Type Culture Collection (Manassas, Va.) were also provided for the assays describes below.
as §1

Q: Which viability at 1 µM (A549; 1 uM) does the source give for `C#Cc1cccc(Nc2nc3ccccc3nc2Nc2cccc(C#C)c2)c1` [TD52, N^2,N^3-bis(3-ethynylphenyl)quinoxaline-2,3-diamine] here?
A: The viability at 1 µM was 71.5 ± 6%.

Q: What about the viability at 10 µM (A549; 10 uM) of the same compound?
A: Its viability at 10 µM is 9.7 ± 0.9%.

Q: And the viability at 1 µM (NCI-H226; 1 uM)?
A: The viability at 1 µM was 79.5 ± 6.9%.

Q: What about the viability at 10 µM (NCI-H226; 10 uM) of the same compound?
A: The viability at 10 µM was 5.3 ± 0.1%.

Q: What about the “inhibition of in vivo tumor growth in comparison with sorafenib” value (PLC5 xenograft tumor; 10 mg/kg each, P<0.05) of the same compound?
A: Its value is “more potent inhibition of in vivo tumor growth”.

Q: What about the tumor size (PLC5 xenograft tumor; 10 mg/kg, oral gavage daily, 4 weeks, vs control arm) of the same compound?
A: The tumor size was “smaller than those of the control arm”.

Q: What about the “PP2A activity in xenograft tumor samples” value (PLC5 xenograft tumor; TD-52 vs vehicle) of the same compound?
A: The value was “enhanced PP2A activity”.

Q: What about the viability at 1 µM (NCI-1703; 1 uM) of the same compound?
A: The viability at 1 µM was 84.7 ± 2.5%.

Q: What about the viability at 10 µM (NCI-1703; 10 uM) of the same compound?
A: Its viability at 10 µM is 10.1 ± 0.1%.

Q: And the IC50 (NCI-1703; cell viability)?
A: The IC50 was 3.8 µM.

Q: What about the “BA (%)” value (BA (%), Table 5) of the same compound?
A: The value was 87%.

Q: What about the viability at 1 µM (H520; 1 uM) of the same compound?
A: Its viability at 1 µM is 95.8 ± 1.26%.

Q: What about the viability at 10 µM (H520; 10 uM) of the same compound?
A: Its viability at 10 µM is 14 ± 0.14%.

Q: What about the IC50 (HA22T) of the same compound?
A: Its IC50 is 0.9 µM.

Q: And the “protein expression of CIP2A and p-Akt” value (CIP2A, p-Akt)?
A: The value was “downregulated”.

Q: And the IC50 (Sk-Hep1)?
A: The IC50 was 1.2 µM.
